{
  "source": "patent US8039501B2",
  "about": "“Synephrine derivatives useful as anti-inflammatory agents” (Universiteit Gent, priority 2005, dated 2011)",
  "key": {"MM1.S cell lines": {"system": "MM1.S cell lines", "experiment": "Annexin V/PI assay in MM1.S cells", "assay_type": "cell-based, human", "conditions": "10^-5 M, FIG. 13", "description": "1. […] Procedure: • Human multiple myeloma cell lines L363, U266, MM1.S and MMR.1 are cultured in RPMI 1640 with Glutamax-I, supplemented with 10% FCS, 100 U/ml penicillin and 100 μg/ml streptomycin. Cells are counted and resuspended in fresh medium at a concentration of 1×10^6/ml. Next, 1 ml of cell suspension is transferred to 5 ml culture tubes in the presence of test compounds (DEX, CpdA, CpdA analogues: 10^−7 to 10^−4 M) or vehicle (EtOH) and incubated for 24 or 48 hours at 37° C. • Double-staining of the cells with PI and annexin V is performed according to the instructions of the Annexin V kit (BD Biosciences). • Double-stained cells are analyzed by flow cytometry. […] Graphs are represented as the ratio of early apoptotic cells versus late apoptotic cells (a) or as total % of living cells (b)."}, "B-CLL cells": {"system": "B-CLL cells", "experiment": "Annexin V/PI flow cytometric analysis of apoptosis in ex-vivo cultured B-CLL cells", "assay_type": "cell-based, human", "conditions": "24 hours", "description": "Blood samples were obtained from B-CLL patients after informed consent according to institutional guidelines. CLL lymphocytes were isolated using Lymphoprep (Nycomed Pharma, Denmark) and re-suspended at a final concentration of 10−30×10^6 cells/ml in RPMI 1640 medium, supplemented with 10% heat-inactivated fetal bovine serum (FBS) (Greiner Bio-one, Wemmel, Belgium), 100 IU/ml penicillin, 100 μg/ml streptomycin, and 0.56 μg/mL fungizone (Gibco BRL, Merelbeke, Belgium). B-CLL cells were cultured in Dulbecco's Modified Eagle Medium (DMEM) (Gibco, Invitrogen Inc.) containing 10% FBS (Gibco, Invitrogen Inc.). For flow cytometric analysis of apoptosis, B-CLL cells were treated with the different compounds for 24 hours, 3×10^5 cells were removed from the culture medium, washed twice with cold PBS, and double stained with annexin V-fluorescein isothiocyanate (FITC) and propidium iodide (PI; Beckman Coulter, Miami, Fla.) in Annexin binding buffer, followed by analysis on a FC500PTM (Beckman Coulter, Nyon, Switzerland) flow cytometer. Flow cytometric data were analyzed using Cytomixs RXP software (Beckman Coulter, Nyon, Switzerland). To avoid non-specific fluorescence from dead cells, live cells were gated using forward and side scatter.\nOne of the early signs of apoptosis is the translocation of the membrane phospholipid phosphatidylserine from the cytoplasmic interface to the extracellular surface. Annexin V has a high affinity for the phospatidylserine-containing phospholipid bilayers. […] As the plasma membrane becomes increasingly permeable during the later stages of apoptosis, the DNA-binding dye PI can readily move across the cell membrane and bind to cellular DNA, providing a means to detect the loss of membrane integrity through mechanisms including necrosis. Three different cell populations can be observed in cells double-stained with AnnV-FITC and PI. […] Cells that stain with Ann V only are early apoptotic cells. And cells that stain with both AnnV and PI are late apoptotic/necrotic cells. The percentage of AnnV-positive B-CLL cells in the lymphocyte gate were measured by FACS and results were expressed as % apoptotic cells, i.e. sum of early apoptotic (AnnV+, PI−), and late apoptotic/dead cells (AnnV+, PI+). The percent of living cells was normalized to 100% living cells incubated in control medium with 0.1% EtOH. All measurements were made in duplicate and averaged."}},
  "note": "“And” between values parts separate entries of the source, which are not always exact repeats. Equal entries are not always repeated.",
  "data": [
    {"compound": "CNCC(Cl)c1ccc(OC(C)=O)cc1.Cl", "note": "(stereo not shown) [CpdA, 2-(4-acetoxyphenyl)-2-chloro-N-methyl-ethylammonium chloride]", "values": [
      {"measurement": "Apoptosis (Annexin V/PI staining)", "setting": "MM1.S cell lines", "value": "able to mediate apoptosis in the MM1.S cell lines at 10-5 M, to a much higher extent than Dex"},
      {"measurement": "% apoptotic cells, CLL patient 1", "setting": "B-CLL cells; 10^−6M", "value": 43, "unit": "%"},
      {"measurement": "% apoptotic cells, CLL patient 2", "setting": "B-CLL cells; 10^−6M", "value": 54, "unit": "%"},
      {"measurement": "Apoptosis in cells from 2 different CLL patients", "setting": "B-CLL cells; 10^−7M", "value": "40% and 55%"}
    ]}
  ]
}
